Values quoted from earlier work as cited in PMC4130638, “Structure of a Stapled Peptide Antagonist Bound to Nutlin-Resistant Mdm2” (PLoS ONE, 2014).
“Also recorded” adds a separate entry of the source.

Tests used:
[1] = tested on: Mdm2 M62A (N-terminal domain); details: M62A mutation in N-terminal domain of Mdm2
[2] = tested on: Mdm2 Q24R (N-terminal domain); details: Q24R mutation in N-terminal domain of Mdm2

## Nutlin-3a
[1]
  binding affinity for Mdm2 M62A: precludes binding of Nutlin, but not p53; also recorded: selectively reducing affinity for Nutlin but not p53; also recorded: significantly impairing binding
[2]
  binding affinity for Mdm2 Q24R: selectively reducing affinity for Nutlin but not p53
